Data: patent US20250229068A1, “ELECTROCONDUCTIVE MICRONEEDLE FOR DRUG DELIVERY INTO DEEP TISSUE” (The University of Hong Kong, priority 2024, published 2025)

Tested on: CGRP gene expression in PC-12 cells
Experiment: RT-qPCR of CGRP gene in PC-12 cells
Assay type: cell-based
Conditions: miconazole and electric current together (0.5 mA, 5 mins), 24 h
Method: PC-12 cells are cultures with 10% FBS and 1% Penicillin-Streptomycin supplemented with DMEM and incubated in a humidified incubator (37° C., 5% CO2). For the experiment, 5×10^4 cells per well are seeded on to 24 well plates and incubate for 24 hours to form a uniform monolayer. After that, miconazole nitrate ([…]) and electrical stimulation (0.5 mA, 5 mins) are given as treatment. Further, untreated cells are served as a control. After the treatment, medium is changed for electrical stimulation group and incubate for another 24 h. After that, total RNA is extracted from the treated cells using RNeasy Mini Kit (Qiagen, Hilden, Germany) and checked the purity using NanoDrop (Thermo Fisher Scientific, USA). Next, RNA is reversely transcribed into cDNA using the First Strand cDNA kit (Takara, DaLian, China). Real-time quantitative PCR reaction is performed with cDNA using TB green Premix. The mean cycle threshold (Ct) value of each target gene is normalized to the housekeeping genes (i.e., GAPDH).
It is hypothesized that the miconazole nitrate molecules released from the electroconductive MNs may also trigger the release of the calcitonin gene-related peptide (CGRP) from nociceptive neurons under electrical stimulation. […]

With `Clc1ccc(COC(Cn2ccnc2)c2ccc(Cl)cc2Cl)c(Cl)c1` (stereo not shown) [miconazole, miconazole nitrate] the “increase in the expression of CGRP” value was roughly 3 fold.
